From PubChem BioAssay AID1845202 (Molecular Pharmacology Branch, DTP, NCI, 2023)

System: DMS 114 tumor spheroids, viability % test/control
Test: Anticancer human tumor DMS 114 cell line growth inhibition;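 note: spheroids exposed to compounds for 7 days before read-out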;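 for viability, T/C: luminescence used as a proxy for viable cells; 100% = DMSO vehicle control viability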
Conditions: spheroids with HUVEC and MSC; for IC50: curve of first compound; for viability, T/C: stronger effect = lower value
Summary of the method: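 Complex tumor spheroids combined malignant cells with endothelial cells and mesenchymal stem cells. DNA-damaging drugs and DNA repair inhibitors were tested alone and in combination, at half-log dilutions down from clinical Cmax (top 10 microM if Cmax unknown), 0.25% DMSO final.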

[1] = second compound 30 pM, first compound 0.0316 µM
[2] = second compound 30 pM, first compound 0.1 µM
[3] = second compound 30 pM, first compound 0.316 µM
[4] = second compound 30 pM, first compound 1 µM
[5] = second compound 30 pM, first compound 3.16 µM
[6] = second compound 30 pM, first compound 10 µM
[7] = second compound 94.9 pM, first compound 0.0316 µM
[8] = second compound 94.9 pM, first compound 0.1 µM
[9] = second compound 94.9 pM, first compound 0.316 µM
[10] = second compound 94.9 pM, first compound 1 µM
[11] = second compound 94.9 pM, first compound 3.16 µM
[12] = second compound 94.9 pM, first compound 10 µM
[13] = second compound 0.0003 µM, first compound 0.0316 µM
[14] = second compound 0.0003 µM, first compound 0.1 µM
[15] = second compound 0.0003 µM, first compound 0.316 µM
[16] = second compound 0.0003 µM, first compound 1 µM
[17] = second compound 0.0003 µM, first compound 3.16 µM
[18] = second compound 0.0003 µM, first compound 10 µM
[19] = second compound 0.000949 µM, first compound 0.0316 µM
[20] = second compound 0.000949 µM, first compound 0.1 µM
[21] = second compound 0.000949 µM, first compound 0.316 µM
[22] = second compound 0.000949 µM, first compound 1 µM
[23] = second compound 0.000949 µM, first compound 3.16 µM
[24] = second compound 0.000949 µM, first compound 10 µM
[25] = second compound 0.003 µM, first compound 0.0316 µM
[26] = second compound 0.003 µM, first compound 0.1 µM
[27] = second compound 0.003 µM, first compound 0.316 µM
[28] = second compound 0.003 µM, first compound 1 µM
[29] = second compound 0.003 µM, first compound 3.16 µM
[30] = second compound 0.003 µM, first compound 10 µM

| SMILES | IC50 (second compound 30 pM) [nM] | IC50 (second compound 94.9 pM) [nM] | IC50 (second compound 0.0003 µM) [nM] | IC50 (second compound 0.000949 µM) [nM] | IC50 (second compound 0.003 µM) [nM] | viability, T/C [1] [%] | viability, T/C [2] [%] | viability, T/C [3] [%] | viability, T/C [4] [%] | viability, T/C [5] [%] | viability, T/C [6] [%] | viability, T/C [7] [%] | viability, T/C [8] [%] | viability, T/C [9] [%] | viability, T/C [10] [%] | viability, T/C [11] [%] | viability, T/C [12] [%] | viability, T/C [13] [%] | viability, T/C [14] [%] | viability, T/C [15] [%] | also measured |
| --- | --- | --- | --- | --- | --- | --- | --- | --- | --- | --- | --- | --- | --- | --- | --- | --- | --- | --- | --- | --- | --- |
| COc1cc(C)[nH]c(=O)c1CN1CCc2c(Cl)cc(C(OC)C3COC3)c(Cl)c2C1=O (stereo not given) + COc1cc2c(cc1O)CCNC21CSC2c3c(OC(C)=O)c(C)c4c(c3C(COC1=O)N1C(O)C3Cc5cc(C)c(OC)c(O)c5C(C21)N3C)OCO4 | > 10000 | > 10000 | < 31.6 | < 31.6 | < 31.6 | 118 | 90.5 | 83.5 | 82.1 | 74.8 | 69.6 | 89.1 | 85.9 | 86.7 | 66.2 | 65.1 | 56 | 38.9 | 43.3 | 41.4 | viability, T/C [16]: 34.7%; viability, T/C [17]: 28.9%; viability, T/C [18]: 26.6%; viability, T/C [19]: 2.76%; viability, T/C [20]: 4.07%; viability, T/C [21]: 4.68%; viability, T/C [22]: 3.28%; viability, T/C [23]: 2.76%; viability, T/C [24]: 1.64%; viability, T/C [25]: 0.25%; viability, T/C [26]: 0.27%; viability, T/C [27]: 0.26%; viability, T/C [28]: 0.24%; viability, T/C [29]: 0.24%; viability, T/C [30]: 0.29% |
| Cc1cc(C)c(CNC(=O)c2cc(-c3ccc(CN4CCOCC4)cc3)cc3c2cnn3C2CCCC2)c(=O)[nH]1 + COc1cc2c(cc1O)CCNC21CSC2c3c(OC(C)=O)c(C)c4c(c3C(COC1=O)N1C(O)C3Cc5cc(C)c(OC)c(O)c5C(C21)N3C)OCO4 | > 10000 | > 10000 | < 31.6 | < 31.6 | < 31.6 | 112 | 100 | 104 | 113 | 115 | 73.2 | 113 | 108 | 112 | 102 | 98.6 | 52.1 | 40.1 | 35.8 | 48.1 | viability, T/C [16]: 38.8%; viability, T/C [17]: 41.4%; viability, T/C [18]: 35.6%; viability, T/C [19]: 2.74%; viability, T/C [20]: 3.63%; viability, T/C [21]: 3.61%; viability, T/C [22]: 3.83%; viability, T/C [23]: 3.94%; viability, T/C [24]: 4.03%; viability, T/C [25]: 0.31%; viability, T/C [26]: 0.33%; viability, T/C [27]: 0.32%; viability, T/C [28]: 0.44%; viability, T/C [29]: 0.34%; viability, T/C [30]: 0.4% |
| [2H]c1nc(C)nc([2H])c1-c1cc(NC[C@@H](C)c2cccc3c(C(=O)NC)ccnc23)ncn1 + COc1cc2c(cc1O)CCNC21CSC2c3c(OC(C)=O)c(C)c4c(c3C(COC1=O)N1C(O)C3Cc5cc(C)c(OC)c(O)c5C(C21)N3C)OCO4 | > 10000 | > 10000 | < 31.6 | < 31.6 | < 31.6 | 105 | 113 | 106 | 109 | 107 | 97.6 | 111 | 107 | 108 | 111 | 98.3 | 98 | 44.4 | 38.9 | 39 | viability, T/C [16]: 42.1%; viability, T/C [17]: 37.4%; viability, T/C [18]: 42.4%; viability, T/C [19]: 2.57%; viability, T/C [20]: 4.99%; viability, T/C [21]: 2.84%; viability, T/C [22]: 4.1%; viability, T/C [23]: 3.19%; viability, T/C [24]: 3.15%; viability, T/C [25]: 0.21%; viability, T/C [26]: 0.22%; viability, T/C [27]: 0.17%; viability, T/C [28]: 0.21%; viability, T/C [29]: 0.16%; viability, T/C [30]: 0.28% |
